According to patent US8614238B2, “Cyclopentanecarboxamide derivatives, medicaments containing such compounds and their use” (Boehringer Ingelheim International GmbH, priority 2009, dated 2013):

Experiments:
[1] = target: T1, Fatty Acid Synthase (FAS) (Homo sapiens, UniProt P49327); test: Human FAS Enzyme Assay; type: biochemical; settings: FAS enzyme prepared from HeLa cells; NADPH consumption; read-out: IC50 (potency range)
T1 construct: The FAS enzyme is prepared from HeLa cells; endogenous in cells; host or cells: HeLa cells
From the text: Fatty acid synthase is an enzyme complex that harbours seven enzymatic activities catalysing the reductive synthesis of long chain fatty acids from acetyl CoA and malonyl CoA to palmitate. When acetyl CoA and malonyl CoA are forming palmitate NADPH is consumed forming NADP. Since NADPH is fluorescent but not NADP the reaction can be measured by analysing the decrease in fluorescence.
Acetyl coenzyme A (cat.-no. A-2181) and malonyl coenzyme A (cat.-no. M-4263) are purchased from Sigma. NADPH (cat.-no. 30316) is purchased from Serva. The FAS enzyme is prepared from HeLa cells. All other material is of highest grade commercially available.
In the plates, 10 μl test compound in distilled water/DMSO (final concentration 0.1% DMSO) are mixed with 35 μl of a mixture of NADPH and acetyl CoA in phosphate buffer (f.c. 326 μM and 60 μM, respectively), and 45 μl FAS enzyme diluted in enzyme buffer. The plates are incubated for 60 minutes at 37° C. The reaction is then started by the addition of 10 μl malonyl CoA dissolved in water (200 μM). The decrease of the optical density in the wells is determined at 37° C. at a wavelength of 340 nm over 10 minutes. From these kinetic data, the slope (i.e. Vmax) is calculated and used for the calculation.
20 mM KH2PO4/K2HPO4, 1 mM EDTA, 1 mM DTT, 5% glycerol, pH 7.4
Each assay 96 well microtiter plate contains wells with vehicle controls instead of compound (1% DMSO in water) as reference for non-inhibited enzyme activity and wells without malonyl CoA as controls for non-specific NADPH degradation. The analysis of the data is performed by the calculation of the OD decrease in the presence of the test compound compared to the OD decrease of the test control wells after subtraction of the non-specific background without the malonyl CoA substrate (slope(sample)-slope(sample w/o malonyl CoA). An inhibitor of the FAS enzyme will give values between Control values (complete reaction without substance) and complete inhibition. Reported values will include: IC50; Top(Control: nmol NADPH oxidized/min/mg); Bottom (MaxInh: nmol NADPH oxidized/min/mg); RATIO (log(IC50 substance/IC50 control inhibitor)).

N-42 cells = test: 14C-acetate incorporation in N-42 cells; type: cell-based; settings: compound at 10 μM
Experimental: ^14C-Acetat Incorporation in N-42 Cells
30000 cells (N-42), in 24 well plates are incubated with the compound dissolved in 500 μL Krebs-Ringer-buffer for 60 min at 37° C., then incubated with 5 μL 1:10 14C-Acetate dilution (1 000 000 dpm) for 4 hours at 37° C. incubation, then washed with 500 μl PBS. 500 μL chloroform/methanol mix 1:1 and 175 μL sodium hydroxide solution was given in each well. The upper fraction is taken away and the lower fraction is vaporized. 50 μL chloroform/methanol mix 1:1 is again given in every well. 10 μL each are taken and given to scintillation vials with 4 mL Ultima Gold. Each vial is measured for 1 minute in a β-Counter.
Cerulenin, a literature known FAS inhibitor is used to validate the assay.

sebaceous glands = test: In vivo activity on sebaceous glands in rats; parameters: species or system Wistar rats
Experimental: In vivo activity of the FAS inhibitors on sebaceous glands is determined as exemplified with the following experiment: Female Wistar rats [Crl:Wi(Han); Charles River, Germany] weighing 200-240 g are conventionally housed in Makrolon type cages at a constant temperature of 22±3° C., on a 12 h light/dark cycle. Food and water are provided ad libitum. The animals (n=7 per group) are orally treated once daily with 3, 10 and 30 mg/kg of compound 1.2 in a suspension with 0.5% Natrosol for seven days. All experimental procedures are conducted according to the German Animal Protection Law. Beginning with day 4 of treatment, at the highest dose effects on skin and coat of the animals could be detected. […] With longer treatment alopecia and cutaneous lesions also developed at the skin of the back. At day seven the animals are euthanized and representative tissue samples of the eye lid, muzzle and back skin are collected into 4% formaldehyde solution for microscopic examination. After trimming, the fixed tissues are processed, embedded in paraffin, sectioned at a thickness of approximately 4 μm and stained with hematoxylin-eosin (H&E). […] This lesion is sometimes accompanied by a slight inflammatory reaction.

[2] = female Wistar rats, highest dose (30 mg/kg orally once daily), beginning with day 4 of treatment

T1 sequence (P49327 whole entry): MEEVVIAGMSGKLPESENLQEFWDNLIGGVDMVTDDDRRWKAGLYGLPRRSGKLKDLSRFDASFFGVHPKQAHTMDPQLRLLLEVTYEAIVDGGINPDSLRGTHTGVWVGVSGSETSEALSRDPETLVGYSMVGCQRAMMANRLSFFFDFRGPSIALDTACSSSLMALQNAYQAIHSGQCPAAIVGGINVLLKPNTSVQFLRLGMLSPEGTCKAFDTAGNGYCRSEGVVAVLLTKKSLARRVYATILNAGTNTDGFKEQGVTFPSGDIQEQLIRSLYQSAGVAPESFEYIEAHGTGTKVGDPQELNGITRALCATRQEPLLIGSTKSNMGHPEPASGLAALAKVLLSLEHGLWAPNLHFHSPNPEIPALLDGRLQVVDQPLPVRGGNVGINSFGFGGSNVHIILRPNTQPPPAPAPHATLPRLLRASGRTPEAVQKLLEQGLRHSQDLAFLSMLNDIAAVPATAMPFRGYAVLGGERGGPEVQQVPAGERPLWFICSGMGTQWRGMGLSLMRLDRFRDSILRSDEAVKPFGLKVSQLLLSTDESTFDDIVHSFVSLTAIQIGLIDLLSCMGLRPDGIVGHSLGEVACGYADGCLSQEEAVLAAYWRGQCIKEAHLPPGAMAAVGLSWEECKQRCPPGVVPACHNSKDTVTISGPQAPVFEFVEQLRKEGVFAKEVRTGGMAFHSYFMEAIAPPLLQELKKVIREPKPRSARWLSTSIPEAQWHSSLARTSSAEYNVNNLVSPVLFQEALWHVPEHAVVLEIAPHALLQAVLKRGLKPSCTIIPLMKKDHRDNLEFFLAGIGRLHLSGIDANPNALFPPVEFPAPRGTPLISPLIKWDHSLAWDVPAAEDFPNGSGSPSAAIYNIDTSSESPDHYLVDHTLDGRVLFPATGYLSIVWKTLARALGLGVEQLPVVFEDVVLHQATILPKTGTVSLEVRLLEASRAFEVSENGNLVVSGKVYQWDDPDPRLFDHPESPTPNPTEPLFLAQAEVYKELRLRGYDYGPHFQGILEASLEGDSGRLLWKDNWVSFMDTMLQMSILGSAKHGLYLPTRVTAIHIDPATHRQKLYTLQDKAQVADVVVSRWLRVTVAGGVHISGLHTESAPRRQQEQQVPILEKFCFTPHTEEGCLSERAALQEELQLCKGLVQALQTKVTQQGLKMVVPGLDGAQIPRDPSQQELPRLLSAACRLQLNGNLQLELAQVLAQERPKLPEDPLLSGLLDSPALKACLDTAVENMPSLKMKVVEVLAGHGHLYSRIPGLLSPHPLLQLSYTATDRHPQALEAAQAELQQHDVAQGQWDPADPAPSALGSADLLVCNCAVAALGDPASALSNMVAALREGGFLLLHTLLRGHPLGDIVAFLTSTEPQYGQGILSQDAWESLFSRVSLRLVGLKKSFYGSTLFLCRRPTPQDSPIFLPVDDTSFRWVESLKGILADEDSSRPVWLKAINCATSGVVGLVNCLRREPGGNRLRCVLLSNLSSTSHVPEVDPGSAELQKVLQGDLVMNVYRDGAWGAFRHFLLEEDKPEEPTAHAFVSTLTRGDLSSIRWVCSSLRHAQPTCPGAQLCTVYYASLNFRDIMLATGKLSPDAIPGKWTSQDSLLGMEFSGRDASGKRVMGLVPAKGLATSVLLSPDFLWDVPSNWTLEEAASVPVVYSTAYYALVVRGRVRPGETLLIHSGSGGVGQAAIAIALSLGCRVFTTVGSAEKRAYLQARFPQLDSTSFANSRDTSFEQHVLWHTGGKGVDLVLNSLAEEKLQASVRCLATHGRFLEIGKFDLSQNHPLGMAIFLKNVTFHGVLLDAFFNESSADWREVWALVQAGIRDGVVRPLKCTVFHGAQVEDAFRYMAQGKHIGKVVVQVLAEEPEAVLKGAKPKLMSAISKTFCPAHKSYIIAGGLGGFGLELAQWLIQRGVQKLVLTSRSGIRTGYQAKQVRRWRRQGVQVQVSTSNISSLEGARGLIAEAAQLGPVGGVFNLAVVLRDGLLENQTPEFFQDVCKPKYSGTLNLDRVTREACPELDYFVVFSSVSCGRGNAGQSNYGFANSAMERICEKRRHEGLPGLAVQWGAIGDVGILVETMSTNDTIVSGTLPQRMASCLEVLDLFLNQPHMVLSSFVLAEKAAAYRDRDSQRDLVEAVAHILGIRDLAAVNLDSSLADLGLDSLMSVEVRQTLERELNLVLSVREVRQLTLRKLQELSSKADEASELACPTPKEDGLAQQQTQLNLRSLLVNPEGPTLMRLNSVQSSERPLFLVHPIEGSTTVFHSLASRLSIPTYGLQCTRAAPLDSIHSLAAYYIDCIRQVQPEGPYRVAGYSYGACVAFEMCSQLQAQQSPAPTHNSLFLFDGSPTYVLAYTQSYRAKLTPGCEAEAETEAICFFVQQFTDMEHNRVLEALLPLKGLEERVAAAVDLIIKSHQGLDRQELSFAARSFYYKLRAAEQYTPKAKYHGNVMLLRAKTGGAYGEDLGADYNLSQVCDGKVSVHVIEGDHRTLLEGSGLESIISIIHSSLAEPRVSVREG

CCC(=O)N[C@H]1CC[C@@H](C(=O)N(C)c2ccc(-c3nc4ccccc4o3)cc2)C1 [Example 1.2, (1R,3S)-3-Propionylamino-cyclopentanecarboxylic acid N-(4-benzooxazol-2-yl-phenyl)-N-methyl-amide]
IC50 [1]: ≤ 500 nM | % control 14C acetate incorporation (N-42 cells): 64.1 % control | microscopic examination of skin (eye lid, muzzle, back skin) (sebaceous glands; female Wistar rats, 3, 10 and 30 mg/kg orally once daily for seven days, all dose groups): treatment-related diffuse atrophy of sebaceous glands of the skin | effects on skin and coat of the animals (sebaceous glands; [2]): progressive cranial alopecia | skin of the mouth and eye lid (sebaceous glands; [2]): reddened and swollen
